Measured values published in ChEMBL document CHEMBL4364295, “Discovery of a First-in-Class Receptor Interacting Protein 2 (RIP2) Kinase Specific Clinical Candidate, 2-((4-(Benzo[d]thiazol-5-ylamino)-6-(tert-butylsulfonyl)quinazolin-7-yl)oxy)ethyl Dihydrogen Phosphate, for the Treatment of Inflammatory Diseases” (J Med Chem, 2019).
≈ marks a conversion by molar mass, not a printed value. Each block holds one compound with its values, some of them ahead of it. Calls of active or inactive are those of the source. No cut-off for these calls is given here.

What was measured:
[1] = Drug uptake in po dosed Sprague-Dawley rat systemic circulation by LC/MS/MS analysis; type: ADME, organism-based; conditions: in vivo
[2] = Solubility of the compound in FaSSIF measured after 4 hrs; type: physicochemical
[3] = Solubility of the compound in FeSSIF; type: physicochemical; conditions: simulated gi fluid
[4] = Solubility of the compound in FaSSIF; type: physicochemical; conditions: simulated gi fluid
Cytochrome P450 3A4 [5] = molecular target: T1, Cytochrome P450 3A4 (Homo sapiens, UniProt P08684); test: Inhibition of CYP3A4 (unknown origin) at 126 nM; type: ADME; conditions: 0.126 µM
T1 sequence (P08684 whole entry): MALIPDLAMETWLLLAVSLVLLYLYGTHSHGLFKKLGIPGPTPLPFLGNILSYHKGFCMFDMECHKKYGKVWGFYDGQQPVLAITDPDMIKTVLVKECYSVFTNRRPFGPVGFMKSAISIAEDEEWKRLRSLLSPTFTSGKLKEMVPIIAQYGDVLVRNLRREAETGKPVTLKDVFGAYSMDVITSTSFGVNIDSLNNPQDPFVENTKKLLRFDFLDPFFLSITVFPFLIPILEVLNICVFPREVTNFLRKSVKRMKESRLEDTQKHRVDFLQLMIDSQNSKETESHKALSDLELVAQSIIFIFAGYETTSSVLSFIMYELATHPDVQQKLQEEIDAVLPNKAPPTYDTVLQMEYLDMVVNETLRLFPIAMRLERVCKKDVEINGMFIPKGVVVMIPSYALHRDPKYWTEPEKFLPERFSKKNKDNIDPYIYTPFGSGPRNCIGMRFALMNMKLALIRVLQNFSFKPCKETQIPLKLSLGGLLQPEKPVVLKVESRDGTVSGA

[6] = AUC in Sprague-Dawley rat assessed as 2-((4-(Benzo[d]thiazol-5-ylamino)-6-(tert-butylsulfonyl)quinazolin-7-yl)oxy)ethanol level at 2 mg/kg, po by LC/MS/MS analysis; type: ADME, organism-based; conditions: in vivo
CYP3A4 = CYP3A4 (Homo sapiens, UniProt P08684); test: Ratio of IC50 for time dependent inhibition of CYP3A4 (unknown origin) in presence of NADPH to IC50 for time dependent inhibition of CYP3A4 (unknown origin) in absence of NADPH; conditions: read-out: Ratio IC50
Sequence of CYP3A4 (P08684 whole entry): as above

Cytochrome P450 3A4 [7] = molecular target: T1, Cytochrome P450 3A4; test: Time dependent inhibition of CYP3A4 (unknown origin); type: ADME
[8] = Prodrug conversion in Sprague-Dawley rat hepatic portal vein assessed as 2-((4-(Benzo[d]thiazol-5-ylamino)-6-(tert-butylsulfonyl)quinazolin-7-yl)oxy)ethanol formation; type: ADME; conditions: in vivo
[9] = molecular target: T2, Voltage-gated inwardly rectifying potassium channel KCNH2 (Homo sapiens, UniProt Q12809); test: Inhibition of human ERG (1159 residues) expressed in CHOK1 cells at 7.3 uM at -80 mV holding potential measured after 5 mins by QPatch electrophysiology method; type: cell-based
T2 sequence (Q12809 whole entry): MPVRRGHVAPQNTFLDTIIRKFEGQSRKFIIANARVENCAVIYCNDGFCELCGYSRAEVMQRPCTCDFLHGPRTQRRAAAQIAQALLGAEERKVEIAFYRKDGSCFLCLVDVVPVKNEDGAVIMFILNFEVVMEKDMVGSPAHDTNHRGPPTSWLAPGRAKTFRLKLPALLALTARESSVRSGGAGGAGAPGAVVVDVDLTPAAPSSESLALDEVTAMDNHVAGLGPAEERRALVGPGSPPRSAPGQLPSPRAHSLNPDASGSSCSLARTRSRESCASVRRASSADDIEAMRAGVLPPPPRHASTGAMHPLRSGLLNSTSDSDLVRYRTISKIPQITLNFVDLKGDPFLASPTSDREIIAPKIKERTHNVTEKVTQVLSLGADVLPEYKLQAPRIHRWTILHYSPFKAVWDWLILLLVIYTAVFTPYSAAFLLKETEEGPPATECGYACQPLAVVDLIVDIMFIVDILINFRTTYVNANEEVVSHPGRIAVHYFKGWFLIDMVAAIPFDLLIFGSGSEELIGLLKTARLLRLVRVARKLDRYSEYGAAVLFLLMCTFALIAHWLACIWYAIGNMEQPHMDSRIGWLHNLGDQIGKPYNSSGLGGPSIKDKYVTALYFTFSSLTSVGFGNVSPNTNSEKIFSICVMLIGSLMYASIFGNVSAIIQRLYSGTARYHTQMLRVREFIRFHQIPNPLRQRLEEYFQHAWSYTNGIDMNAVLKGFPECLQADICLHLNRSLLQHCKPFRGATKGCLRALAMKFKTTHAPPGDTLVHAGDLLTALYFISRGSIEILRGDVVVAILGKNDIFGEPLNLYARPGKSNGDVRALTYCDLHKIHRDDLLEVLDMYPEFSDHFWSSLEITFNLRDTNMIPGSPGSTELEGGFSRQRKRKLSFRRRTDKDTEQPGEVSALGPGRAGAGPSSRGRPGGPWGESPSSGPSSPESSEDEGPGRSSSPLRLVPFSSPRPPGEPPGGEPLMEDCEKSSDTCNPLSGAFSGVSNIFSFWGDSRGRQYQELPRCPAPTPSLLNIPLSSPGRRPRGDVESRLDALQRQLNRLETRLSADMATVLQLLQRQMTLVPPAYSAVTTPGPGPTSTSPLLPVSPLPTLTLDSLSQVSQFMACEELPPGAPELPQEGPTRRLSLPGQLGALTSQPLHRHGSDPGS

Intestinal mucosa [10] = test: Antiinflammatory activity in ulcerative colitis patient derived inflamed intestinal mucosa assessed as reduction in IL1beta production at 1 uM measured after overnight incubation by immunoassay; type: functional, tissue-based; conditions: Homo sapiens
Intestinal mucosa [11] = test: Antiinflammatory activity in ulcerative colitis patient derived inflamed intestinal mucosa assessed as reduction in IL6 production at 1 uM measured after overnight incubation by immunoassay; type: functional, tissue-based; conditions: Homo sapiens
Intestinal mucosa [12] = test: Antiinflammatory activity in crohn's disease patient derived inflamed intestinal mucosa assessed as reduction in IL6 production at 1 uM measured after overnight incubation by immunoassay; type: functional, tissue-based; conditions: Homo sapiens
Intestinal mucosa [13] = test: Antiinflammatory activity in crohn's disease patient derived inflamed intestinal mucosa assessed as reduction in IL1beta production at 1 uM measured after overnight incubation by immunoassay; type: functional, tissue-based; conditions: Homo sapiens
Mus musculus [14] = test: (§1) Antiinflammatory activity TNBS-induced mouse model of colitis assessed as decrease in colitis score at 1.5 mg/kg, po administered twice daily via gavage pretreated for 2 days followed by TNBS stimulation on day 3 and subsequent compound dosing from day 3 to 6 measured post-last dose by histological analysis; type: functional, organism-based
[15] = molecular target: T3, Receptor-interacting serine/threonine-protein kinase 2 (Homo sapiens, UniProt O43353); test: Inhibition of RIPK2 in human whole blood assessed as reduction in MDP-induced TNFalpha production preincubated for 30 mins followed by MDP-stimulation and measured after 6 hrs by immunoassay; type: tissue-based
T3 sequence (O43353 whole entry): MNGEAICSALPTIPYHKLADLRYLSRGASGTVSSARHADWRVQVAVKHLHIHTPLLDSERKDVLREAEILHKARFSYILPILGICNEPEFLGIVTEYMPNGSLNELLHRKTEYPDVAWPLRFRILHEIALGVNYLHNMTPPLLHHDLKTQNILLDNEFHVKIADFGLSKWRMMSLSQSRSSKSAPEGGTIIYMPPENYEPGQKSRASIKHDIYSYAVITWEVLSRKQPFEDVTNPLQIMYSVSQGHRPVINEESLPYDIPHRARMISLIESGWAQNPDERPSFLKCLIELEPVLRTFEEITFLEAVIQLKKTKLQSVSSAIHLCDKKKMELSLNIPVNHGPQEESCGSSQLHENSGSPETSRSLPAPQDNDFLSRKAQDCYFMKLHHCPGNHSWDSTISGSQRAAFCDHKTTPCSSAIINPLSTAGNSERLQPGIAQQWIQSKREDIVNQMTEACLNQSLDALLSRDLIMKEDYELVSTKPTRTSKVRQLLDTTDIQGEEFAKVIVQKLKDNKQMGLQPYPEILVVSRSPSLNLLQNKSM

[16] = molecular target: T2, Voltage-gated inwardly rectifying potassium channel KCNH2; test: Inhibition of human ERG (1159 residues) expressed in CHOK1 cells at -80 mV holding potential measured after 5 mins by QPatch electrophysiology method; type: cell-based
[17] = molecular target: T3, Receptor-interacting serine/threonine-protein kinase 2; test: Inhibition of fluorescent-labelled ligand binding to human RIP2K preincubated for 10 mins followed by fluorescent-labelled ligand addition and measured after 10 mins by fluorescence polarization assay
Cricetinae = test: Displacement of [125I]2-iodomelatonin from hamster MT3 receptor at 10 uM measured after 60 mins by scintillation counting method
[18] = molecular target: Vascular endothelial growth factor receptor 3 (Homo sapiens) (UniProt P35916); test: Inhibition of human VEGFR3 at 1 uM using poly[Glu:Tyr] (4:1) as substrate in presence of [gamma-33P]ATP relative to control
Sequence of Vascular endothelial growth factor receptor 3 (Homo sapiens) (P35916 whole entry): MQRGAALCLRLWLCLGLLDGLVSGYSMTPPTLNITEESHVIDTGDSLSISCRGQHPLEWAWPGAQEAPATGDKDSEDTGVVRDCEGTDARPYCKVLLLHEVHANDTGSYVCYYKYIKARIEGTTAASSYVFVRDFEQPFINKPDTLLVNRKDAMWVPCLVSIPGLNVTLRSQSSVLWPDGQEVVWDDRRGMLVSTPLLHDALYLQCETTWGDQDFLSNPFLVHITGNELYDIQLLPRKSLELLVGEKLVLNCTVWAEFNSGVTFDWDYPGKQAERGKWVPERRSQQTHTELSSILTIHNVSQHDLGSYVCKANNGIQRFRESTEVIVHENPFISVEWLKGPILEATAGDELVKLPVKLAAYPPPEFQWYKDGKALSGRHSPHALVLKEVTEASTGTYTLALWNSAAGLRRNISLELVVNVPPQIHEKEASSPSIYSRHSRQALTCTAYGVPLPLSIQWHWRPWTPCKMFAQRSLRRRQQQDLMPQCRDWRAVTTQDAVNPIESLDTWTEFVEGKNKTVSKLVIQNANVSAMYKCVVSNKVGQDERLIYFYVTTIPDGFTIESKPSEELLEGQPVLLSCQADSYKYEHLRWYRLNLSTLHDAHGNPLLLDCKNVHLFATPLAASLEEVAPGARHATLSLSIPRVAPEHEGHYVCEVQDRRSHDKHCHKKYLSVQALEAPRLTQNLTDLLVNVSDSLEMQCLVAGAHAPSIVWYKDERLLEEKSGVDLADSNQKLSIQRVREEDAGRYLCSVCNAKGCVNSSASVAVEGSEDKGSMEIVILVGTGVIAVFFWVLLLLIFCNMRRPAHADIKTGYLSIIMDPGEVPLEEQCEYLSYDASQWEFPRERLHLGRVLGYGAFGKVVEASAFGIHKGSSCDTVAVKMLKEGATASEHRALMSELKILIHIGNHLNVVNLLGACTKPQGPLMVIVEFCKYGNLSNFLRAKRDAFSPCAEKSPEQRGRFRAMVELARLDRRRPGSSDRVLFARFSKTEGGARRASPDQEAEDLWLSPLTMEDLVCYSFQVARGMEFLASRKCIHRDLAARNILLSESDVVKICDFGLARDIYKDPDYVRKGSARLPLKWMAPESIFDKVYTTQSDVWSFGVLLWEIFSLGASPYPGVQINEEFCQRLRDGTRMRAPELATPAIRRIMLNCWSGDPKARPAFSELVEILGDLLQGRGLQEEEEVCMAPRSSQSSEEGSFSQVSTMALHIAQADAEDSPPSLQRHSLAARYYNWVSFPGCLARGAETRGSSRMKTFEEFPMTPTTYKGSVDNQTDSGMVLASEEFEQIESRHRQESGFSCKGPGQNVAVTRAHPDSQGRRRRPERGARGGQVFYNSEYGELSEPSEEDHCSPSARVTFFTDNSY

Mus musculus [19] = test: as §1, with “7.5 to 145” for “1.5”; type: functional, organism-based
Homo sapiens [20] = organism: Homo sapiens; test: Inhibition of NOD2/TLR5 in human PBMC assessed as reduction in MDP/flagellin-induced IL6 production preincubated for 30 mins followed by […] and measured after 6 hrs by immunoassay
Homo sapiens [21] = organism: Homo sapiens; test: Inhibition of NOD2/TLR4 in human PBMC assessed as reduction in MDP/LPS-induced IL6 production preincubated for 30 mins followed by […] and measured after 6 hrs by immunoassay
Homo sapiens [22] = organism: Homo sapiens; test: Inhibition of NOD2/IL1R in human PBMC assessed as reduction in MDP/Il1alpha-induced TNFalpha production preincubated for 30 mins followed by […] and measured after 6 hrs by immunoassay
Homo sapiens [23] = organism: Homo sapiens; test: Inhibition of NOD2/TLR5 in human PBMC assessed as reduction in MDP/flagellin-induced TNFalpha production preincubated for 30 mins followed by […] and measured after 6 hrs by immunoassay
Homo sapiens [24] = organism: Homo sapiens; test: Inhibition of NOD2/TLR4 in human PBMC assessed as reduction in MDP/LPS-induced TNFalpha production preincubated for 30 mins followed by […] and measured after 6 hrs by immunoassay
Homo sapiens [25] = organism: Homo sapiens; test: Inhibition of NOD2/IL1R in human PBMC assessed as reduction in MDP/Il1alpha-induced IL6 production preincubated for 30 mins followed by […] and measured after 6 hrs by immunoassay
Homo sapiens [26] = organism: Homo sapiens; test: (§2) Inhibition of NOD2/TLR2 in human PBMC assessed as reduction in MDP/Pam2CSK4-induced TNFalpha production preincubated for 30 mins followed by MDP/Pam2CSK4 stimulation and measured after 6 hrs by immunoassay
[27] = as §2
Homo sapiens [28] = organism: Homo sapiens; test: Inhibition of NOD2/TLR2 in human PBMC assessed as reduction in MDP/Pam2CSK4-induced IL6 production preincubated for 30 mins followed by MDP/Pam2CSK4 stimulation and measured after 6 hrs by immunoassay
[29] = AUC in Sprague-Dawley rat at 2 mg/kg, po by LC/MS/MS analysis; type: ADME, organism-based; conditions: in vivo

Structure (SMILES): CC(C)(C)S(=O)(=O)c1cc2c(Nc3ccc4scnc4c3)ncnc2cc1OCCOS(=O)(=O)[O-].[Na+]
Drug uptake [1]: Not Active | solubility at 4 h [2]: 2460 µg/mL

Structure (SMILES): CC(C)(C)S(=O)(=O)c1cc2c(Nc3ccc4scnc4c3)ncnc2cc1OCCOP(=O)(O)O.Cl
solubility [3]: Soluble | solubility [4]: Soluble

Structure (SMILES): C[C@]12C=CC(=O)C=C1CC[C@@H]1[C@@H]2[C@@H](O)C[C@@]2(C)[C@H]1CC[C@]2(O)C(=O)CO
Activity (Intestinal mucosa [10]): Active | Activity (Intestinal mucosa [11]): Active | Activity (Intestinal mucosa [12]): Active | Activity (Intestinal mucosa [13]): Active | Activity (Mus musculus [14]): Active

Structure (SMILES): CC(C)[C@H](N)C(=O)OCCOc1cc2ncnc(Nc3ccc4scnc4c3)c2cc1S(=O)(=O)C(C)(C)C.Cl.Cl
solubility at 4 h [2]: 690 µg/mL

Structure (SMILES): CC(C)(C)S(=O)(=O)c1cc2c(Nc3ccc4scnc4c3)ncnc2cc1OCCOP(=O)([O-])[O-].[Na+].[Na+]
solubility [3]: Soluble | solubility [4]: Soluble

Structure (SMILES): CC(C)S(=O)(=O)c1ccc2nccc(Nc3n[nH]c4ccc(F)cc34)c2c1
inhibition (Homo sapiens [20]): Active | inhibition (Homo sapiens [21]): Active | inhibition (Homo sapiens [22]): Active | inhibition (Homo sapiens [23]): Active | inhibition (Homo sapiens [24]): Active | inhibition (Homo sapiens [25]): Active | inhibition (Homo sapiens [26]): Dose-dependent effect | IC50 [27]: 25 nM | inhibition (Homo sapiens [28]): Active

Structure (SMILES): CN(C)C(=O)OCCOc1cc2ncnc(Nc3ccc4scnc4c3)c2cc1S(=O)(=O)C(C)(C)C
AUC [29]: 10 ng·h/mL | Drug uptake [1]: Not Active | AUC [6]: 10 ng·h/mL | solubility at 4 h [2]: 12 µg/mL (≈ 22.7 µM)

Further lines, with some results ahead:

inhibition (INH) (Cytochrome P450 3A4 [5]): Active | Drug uptake [1]: Not Active | AUC [6]: 730 ng·h/mL | inhibition (INH) (Cytochrome P450 3A4 [7]): Active | Drug metabolism [8]: Metabolite_Detected
Structure (SMILES): CC(C)[C@H](N)C(=O)OCCOc1cc2ncnc(Nc3ccc4scnc4c3)c2cc1S(=O)(=O)C(C)(C)C
IC50 shift (CYP3A4): 2.9 | inhibition (INH) [9]: Active

IC50 [15]: 374 nM | IC50 [17]: 4 nM
Structure (SMILES): COc1cc2ncnc(Nc3ccc4scnc4c3)c2cc1S(=O)(=O)C(C)(C)C
IC50 [16]: > 30000 nM

inhibition (Cricetinae): Active | inhibition [18]: > 90%
Structure (SMILES): CC(C)(C)S(=O)(=O)c1cc2c(Nc3ccc4scnc4c3)ncnc2cc1OCCOP(=O)(O)O
Activity (Mus musculus [19]): Active
